# Key:
# [1] = tested on: glucocorticoid receptors (GR); set-up: method as in Michelini, personal communication; details: ref Michelini, personal communication; cited from earlier work
# [2] = tested on: IOBA-NHC cells; details: cited from earlier work
# [3] = MTT cytotoxicity assay in Neuro-2a cells; format: cell-based, Murine; details: mouse, Neuro-2a cells (confluent nongrowing monolayers), 24 h incubation at 37°C
# Description: (§1) Cell viability in the presence of different concentration of the compound was determined using the MTT assay. The absorbance of each well was measured on Eurogenetics MPR-A 4i microplate reader using a test wavelength of 570 nm and a reference wavelength of 630 nm. The CC50 was defined as the concentration of the compound that caused a 50% reduction in absorbance.
# (§2) Fifty percent cytotoxic concentration (CC50) for PC-12, Neuro-2a, and SH-SY5Y cells was determined. Compounds 1 and 2 were added to confluent nongrowing cells in concentrations ranging from 1 to 144 μM and from 1 to 129 μM, respectively, and, after 24 h incubation at 37°C, a MTT colorimetric assay was performed.
# (§3) Figure 2 Cytotoxic effect of compounds 1 and 2 in three nervous cell lines. (a) PC-12, (b) Neuro-2a, and (c) SH-SY5Y cells monolayers were incubated in the presence of different concentrations of compounds 1 and 2. After 24 h of incubation at 37°C cell viability was determined by the MTT assay. The CC50 was defined as the concentration of the compound that caused a 50% reduction in cell viability. Data are mean values from four separate experiments.
# [4] = tested on: HSV-1 KOS wt strain; experiment: HSV-1 KOS wt virus yield reduction in nervous cell lines (plaque assay); format: cell-based, herpes simplex virus type 1; details: SH-SY5Y cells, m.o.i. 1, 5 μM compound 2, 24 h
# Description: (§4) Cells grown in 24-well plates were infected with HSV-1 KOS and, after virus adsorption, treated or not with the compounds. After 24 h of incubation at 37°C, supernatants were collected and titrated in Vero cells. Briefly, Vero cells grown in 24-well plates were infected with serial 10-fold dilutions of viral yields and incubated for 1 h at 37°C. Residual inocula were replaced by maintenance medium with 0.7% of methylcellulose. After 72 h of incubation at 37°C, cells were fixed with formaldehyde 10% and stained with Crystal Violet, and plaque forming units were counted.
# Neuro-2a, PC-12, and SH-SY5Y cells grown in 24-well plates were infected with HSV-1 KOS wt strain at m.o.i. of 1. After 24 h of incubation at 37°C, supernatants were collected and titrated in Vero cells.
# (§5) Figure 3 Effect of compounds 1 and 2 on HSV-1 virus yield reduction. (a) PC-12, (b) Neuro-2a, and (c) SH-SY5Y cells were infected with HSV-1 KOS (black bars) and HSV-1 Cgal (grey bars) and incubated for 1 h at 37°C. Then, cells were covered with DMEM/F12 2% or media containing 10 μM of compound 1 and 5 μM of compound 2. After 24 h supernatants were harvested and viral titres were determined by plaque assay. Bars show average of two replicates ± SD. *P < 0.05, with respect to untreated infected cells.
# [5] = tested on: IFN-γ; experiment: IFN-gamma secretion in HSV-1-infected Neuro-2a cells (ELISA); format: cell-based, Murine; details: HSV-1 KOS-infected Neuro-2a cells, 10 μM compound 1 / 5 μM compound 2, 24 h; for IFN-γ levels: infected control 154.7 ± 7.2
# Description: (§6) Neuro-2a cells grown in 24-well plates were infected with HSV-1 at a multiplicity of infection (m.o.i.) of 1. After 24 h of incubation at 37°C cells supernatants were harvested and cytokines were quantified. Murine IL-6 and IFN-gamma were quantified by commercial ELISA sets (BD OptEIATM, Becton Dickinson, USA) according to manufacturer instructions.
# (§7) On the other hand, compound 2 increases IL-6 levels in human epithelial cells infected with HSV-1 [12]. […] For that purpose, we used those supernatants in which the antiviral effect of compounds 1 and 2 was found (Figure 3(b)). IL-6 and IFN-γ secretion reached 659.6 ± 14.8 pg/mL and 154.7 ± 7.2 pg/mL in HSV-1 infected control cells, respectively. […] IFN-γ levels dropped to 72.3 ± 4.9 pg/mL (P < 0.006) (53.3%) and to 53 ± 4.2 pg/mL (P < 0.001) (65.7%) with respect to untreated infected cells after treatment with 1 and 2. Thus, compounds 1 and 2 might display an anti-inflammatory activity in HSV-1-infected Neuro-2a cells.
# [6] = MTT cytotoxicity assay in SH-SY5Y cells; format: cell-based; details: human, SH-SY5Y cells (confluent nongrowing monolayers), 24 h incubation at 37°C
# Description: as §1, §2, §3
# [7] = MTT cytotoxicity assay in PC-12 cells; format: cell-based; details: rat, PC-12 cells (confluent nongrowing monolayers), 24 h incubation at 37°C
# Description: as §1, §2, §3
# [8] = tested on: TNF-α; set-up: method as in earlier work; details: compound 1: HSV-1-infected epithelial cells; compound 2: IOBA-NHC cells; Michelini, personal communication; cited from earlier work
# [9] = tested on: glucocorticoid receptors (GR); set-up: method as in Michelini, personal communication; details: ref Michelini, personal communication; cited from earlier work; remark: listed apart in the source
# [10] = tested on: IL-6; experiment: IL-6 secretion in HSV-1-infected Neuro-2a cells (ELISA); format: cell-based, Murine; details: HSV-1 KOS-infected Neuro-2a cells, 10 μM compound 1 / 5 μM compound 2, 24 h; for IL-6 levels, reduction: vs untreated infected cells; for IL-6 levels: infected control 659.6 ± 14.8
# Description: as §6, §7
# [11] = tested on: IL-6; set-up: method as in earlier work; details: HSV-1-infected epithelial cells (IOBA-NHC and HCLE); Michelini, personal communication; cited from earlier work
# [12] = tested on: HSV-1 Cgal; experiment: HSV-1 Cgal virus yield reduction in nervous cell lines (plaque assay); format: cell-based, herpes simplex virus type 1; details: regardless of the virus strain used (KOS wt or Cgal); PC-12, Neuro-2a, SH-SY5Y cells; 10 μM compound 1 / 5 μM compound 2, 24 h
# Description: as §4
# (§8) Cells grown in coverslips inside 24-well plates were infected with HSV-1 Cgal. After adsorption, inocula were eliminated and cells were covered with MEM 1.5%. At 24 h after infection (p.i.), supernatants were harvested and stored at −70°C for titration, and cells were stained in situ for β-gal. Coverslips were mounted, observed with an Olympus BX61 microscope, and photographed.
# as §5, with “Bars show average of two replicates ± SD. *P < 0.05, with respect to untreated infected cells.” left out
# [13] = tested on: HSV-1 Cgal; experiment: HSV-1 Cgal propagation, in situ beta-gal staining; format: cell-based, herpes simplex virus type 1; details: PC-12, Neuro-2a, SH-SY5Y cells, m.o.i. 1, 10 μM of 1 / 5 μM of 2, 24 h
# Description: as §8
# We have previously reported that compounds 1 and 2 inhibit HSV-1 propagation in IOBA-NHC cells. To investigate the effect of both compounds on viral propagation, PC-12, Neuro-2a, and SH-SY5Y cells grown in coverslips inside 24-well plates were infected with HSV-1 Cgal (m.o.i. = 1) and, then, treated with control media, 10 μM of 1 and 5 μM of 2. After 24 h incubation at 37°C, cells were stained in situ for β-gal. […] Therefore, both compounds would prevent HSV-1 Cgal spreading in all nervous cell lines assayed when added after infection.
# Figure 4 Effect of compounds 1 and 2 on HSV-1 propagation. (a) PC-12, (b) Neuro-2a, and (c) SH-SY5Y cells monolayers grown in coverslips inside 24-well plates were infected with HSV-1 Cgal and incubated for 1 h at 37°C. Then, cells were covered with DMEM/F12 2% or media containing 10 μM of compound 1 and 5 μM of compound 2. After incubation for 24 h, cells were stained in situ for β-gal. […]
SMILES,induction of glucocorticoid activity via GR activation [1],CC50 [2] [µM],CC50 at 24 h [3] [µM],inhibition of HSV-1 yield [4] [logs],"IFN-γ levels, drop with respect to untreated infected cells [5] [%]",IFN-γ levels [5] [pg/mL],CC50 at 24 h [6] [µM],CC50 at 24 h [7] [µM],effect on TNF-α levels [8],binding to glucocorticoid receptors (GR) [9],"IL-6 levels, reduction [10] [%]",IL-6 levels [10] [pg/mL],effect on IL-6 levels [11],reduction in viral yields [12],HSV-1 Cgal propagation (β-gal stained cells) [13]
"CC[C@@H](C(C)C)[C@H](O)[C@@H](O)[C@@H](C)[C@H]1CC[C@H]2[C@@H]3CC(=O)[C@@]4(O)C[C@@H](Br)CC[C@]4(C)[C@H]3CC[C@]12C [Compound 2, (22S,23S)-3β-bromo-5α,22,23-trihydroxystigmastan-6-one]",none of them was able to,> 277,65.2,~2,65.7,53 ± 4.2,70,> 129,inhibits,none of them was able to bind,41.1,388.2 ± 11.4,increases,1-2 log,only scattered stained cells
"CC[C@@H](C(C)C)[C@H](O)[C@@H](O)[C@@H](C)[C@H]1CC[C@H]2[C@@H]3CCC4=CC(=O)CC[C@]4(C)[C@H]3CC[C@]12C [Compound 1, (22S,23S)-22,23-dihydroxystigmast-4-en-3-one]",none of them was able to,71.2,80.4,,53.3,72.3 ± 4.9,77.2,> 144,does not reduce,none of them was able to bind,46.2,355.4 ± 10.9,does not reduce,1-2 log,only scattered stained cells

# Reference: paper PMC4131461, “Antiviral Action of Synthetic Stigmasterol Derivatives on Herpes Simplex Virus Replication in Nervous Cells In Vitro” (BioMed Research International, 2014)
